Assay results published in PubChem BioAssay AID264 (DTP/NCI, 2004).
Several values for one entry are separate records, joined by “and”; a condition that tells them apart may be missing. Identical values can stand only once. Records with an inconclusive call do not appear.

Test system: nude mice, LX-1 lung xenograft intrarenal, tumor weight T/C
Assay: NCI In Vivo Anticancer Drug Screen. Data for tumor model Human Lung LX-1 Xenograft (intrarenal inoculation) in NU/NU Swiss (nude) mice
Conditions: endpoint: mean tumor weight change, higher = larger tumour
Method: The antitumor activity of compounds was measured in mice bearing transplantable tumors. Survival or tumor size were measured and the results are expressed as the measurement made in the treated group (T) divided by the measurement made in the vehicle treated control group (C). The tumor model used in this assay is Human Lung LX-1 Xenograft (intrarenal inoculation) in NU/NU Swiss (nude) mice

[1] = dose: 150.0 mg/kg/injection, schedule: Q04DX003 (sc), vehicle: Klucel (hydroxypropylcellulose) (HPC)
[2] = dose: 600.0 mg/kg/injection, schedule: Q04DX003 (sc), vehicle: Klucel (hydroxypropylcellulose) (HPC)
[3] = dose: 1200.0 mg/kg/injection, schedule: Q04DX003 (sc), vehicle: Klucel (hydroxypropylcellulose) (HPC)
[4] = dose: 2400.0 mg/kg/injection, schedule: Q04DX003 (sc), vehicle: Klucel (hydroxypropylcellulose) (HPC)
[5] = dose: 150.0 mg/kg/injection, schedule: Q04DX003 (sc), vehicle: suspension in saline
[6] = dose: 300.0 mg/kg/injection, schedule: Q04DX003 (sc), vehicle: Klucel (hydroxypropylcellulose) (HPC)
[7] = dose: 150.0 mg/kg/injection, schedule: Q04DX003 (sc), vehicle: saline with Tween-80
[8] = dose: 300.0 mg/kg/injection, schedule: Q04DX003 (sc), vehicle: saline with Tween-80

CC(C)(C)c1ccc(CN2CCN(C(c3ccccc3)c3ccc(Cl)cc3)CC2)cc1 (stereo not given)
T/C (dose: 37.5 mg/kg/injection, schedule: Q04DX003 (sc), vehicle: Klucel (hydroxypropylcellulose) (HPC)): 79 % of control | T/C (dose: 75.0 mg/kg/injection, schedule: Q04DX003 (sc), vehicle: Klucel (hydroxypropylcellulose) (HPC)): 63 % of control | T/C [1]: 71 % of control | T/C [2]: 63 % of control | T/C [3]: 78 % of control | T/C [4]: 62 % of control

O=C1N[C@@H]([C@H]2CC[C@H](Cl)CN2)C(=O)N[C@H]1[C@H]1CC[C@H](Cl)CN1
T/C (dose: 0.63 mg/kg/injection, schedule: Q01DX010 (sc), vehicle: water): 124 % of control | T/C (dose: 1.25 mg/kg/injection, schedule: Q01DX010 (sc), vehicle: water): 98 % of control | T/C (dose: 5.0 mg/kg/injection, schedule: Q01DX010 (sc), vehicle: water): 22 % of control | T/C (dose: 5.0 mg/kg/injection, schedule: Q04DX003 (sc), vehicle: water): 70 % of control | T/C (dose: 10.0 mg/kg/injection, schedule: Q04DX003 (sc), vehicle: water): 58 % of control

CNc1nc2c(N)ncnc2n1C1OC(CO)C(O)C1O (stereo not given)
T/C (dose: 25.0 mg/kg/injection, schedule: Q04DX003 (sc), vehicle: saline): 103 % of control | T/C (dose: 50.0 mg/kg/injection, schedule: Q04DX003 (sc), vehicle: saline): 82 % of control | T/C (dose: 100.0 mg/kg/injection, schedule: Q04DX003 (sc), vehicle: saline): 57 % of control

CS(=O)(=O)CS(=O)(=O)OCCCl
T/C [5]: 94 % of control

C[C@]12C=CC(=O)C=C1CC[C@@H]1[C@@H]2C(=O)C[C@@]2(C)[C@H]1CC[C@]2(O)C(=O)CO
T/C [6]: 50 % of control | T/C [2]: 56 % of control | T/C [3]: 47 % of control | T/C [4]: 35 % of control

Nc1nc(N)c2cc(S(=O)(=O)c3ccccc3)ccc2n1
T/C [7]: 116 % of control | T/C [8]: 77 % of control | T/C (dose: 600.0 mg/kg/injection, schedule: Q04DX003 (sc), vehicle: saline with Tween-80): 87 % of control | T/C (dose: 1200.0 mg/kg/injection, schedule: Q04DX003 (sc), vehicle: saline with Tween-80): 95 % of control

O=C(O)CSc1c(Cl)c(=O)oc2ccc(Cl)cc12
T/C [1]: 52 % of control | T/C [6]: 70 % of control | T/C [2]: 82 % of control | T/C [3]: 165 % of control

CC(=O)O[C@@H]1[C@@H](O)C2=C3[C@]4(C)[C@@H]1C(C)(C)C(=O)C[C@@H]4[C@]3(O)[C@H](OC(C)=O)[C@@]1(C[C@@H]1C)C2=O
T/C (dose: 12.5 mg/kg/injection, schedule: Q01DX010 (sc), vehicle: saline with Tween-80): 104 % of control | T/C (dose: 25.0 mg/kg/injection, schedule: Q01DX010 (sc), vehicle: saline with Tween-80): 58 % of control | T/C (dose: 50.0 mg/kg/injection, schedule: Q01DX010 (sc), vehicle: saline with Tween-80): 207 % of control

CS(=O)(=O)c1ncc(Br)cn1
T/C (dose: 75.0 mg/kg/injection, schedule: Q04DX003 (sc), vehicle: saline with Tween-80): 100 % of control | T/C [7]: 57 % of control | T/C [8]: 84 % of control

CCN1/C(=C/C(C)=C/c2sc3ccc4ccccc4c3[n+]2CC)Sc2ccc3ccccc3c21
T/C (dose: 0.75 mg/kg/injection, schedule: Q04DX003 (sc), vehicle: Klucel (hydroxypropylcellulose) (HPC)): 67 % of control | T/C (dose: 1.5 mg/kg/injection, schedule: Q04DX003 (sc), vehicle: Klucel (hydroxypropylcellulose) (HPC)): 112 % of control | T/C (dose: 3.0 mg/kg/injection, schedule: Q04DX003 (sc), vehicle: Klucel (hydroxypropylcellulose) (HPC)): 76 % of control | T/C (dose: 6.0 mg/kg/injection, schedule: Q04DX003 (sc), vehicle: Klucel (hydroxypropylcellulose) (HPC)): 96 % of control | T/C (dose: 12.0 mg/kg/injection, schedule: Q04DX003 (sc), vehicle: Klucel (hydroxypropylcellulose) (HPC)): 112 % of control | T/C (dose: 48.0 mg/kg/injection, schedule: Q04DX003 (sc), vehicle: Klucel (hydroxypropylcellulose) (HPC)): 81 % of control and 92 % of control

COc1cc2cc(c1Cl)N(C)C(=O)CC(OC(=O)C(C)C)C1(C)OC1C(C)C1CC(O)(NC(=O)O1)C(OC)/C=C/C=C(C)C2 (stereo not given)
T/C (dose: 100.0 micrograms/kg/injection, schedule: Q01DX010 (sc), vehicle: saline + alcohol): 19 % of control and 39 % of control | T/C (dose: 200.0 micrograms/kg/injection, schedule: Q01DX010 (sc), vehicle: saline + alcohol): 44 % of control

COC1=NCN=C2SC=C(N)N=C12
T/C [5]: 79 % of control

O=C(O)C1(C(=O)O)CCC1.[NH2-].[NH2-].[Pt+2]
T/C (dose: 6.25 mg/kg/injection, schedule: Q01DX010 (sc), vehicle: dextrose): 73 % of control | T/C (dose: 12.5 mg/kg/injection, schedule: Q01DX010 (sc), vehicle: dextrose): 88 % of control | T/C (dose: 25.0 mg/kg/injection, schedule: Q01DX010 (sc), vehicle: dextrose): 68 % of control
